Experimental data from ChEMBL document CHEMBL1145942, “Three-dimensional quantitative structure-activity relationship analyses of peptide substrates of the mammalian H+/peptide cotransporter PEPT1” (J Med Chem, 2003).
Where a SMILES comes first, the peptide text is derived from it. [ ]: non-standard residue; d: D form. The star is where a group is joined. Bip = N[C@@H](Cc1ccc(-c2ccccc2)cc1)C(=O)O; Pip = O=C(O)[C@@H]1CCCCN1; NMeA = CN[C@@H](C)C(=O)O; Nle = CCCC[C@H](N)C(=O)O; Orn = NCCC[C@H](N)C(=O)O; Abu = CC[C@H](N)C(=O)O; Cbz = O=C(OCc1ccccc1)*; Boc = CC(C)(C)OC(=O)*; Aib = CC(C)(N)C(=O)O; Sar = CNCC(=O)O

Molecular target: T1, Solute carrier family 15 member 1 (Homo sapiens, UniProt P46059)
T1 sequence (P46059 whole entry): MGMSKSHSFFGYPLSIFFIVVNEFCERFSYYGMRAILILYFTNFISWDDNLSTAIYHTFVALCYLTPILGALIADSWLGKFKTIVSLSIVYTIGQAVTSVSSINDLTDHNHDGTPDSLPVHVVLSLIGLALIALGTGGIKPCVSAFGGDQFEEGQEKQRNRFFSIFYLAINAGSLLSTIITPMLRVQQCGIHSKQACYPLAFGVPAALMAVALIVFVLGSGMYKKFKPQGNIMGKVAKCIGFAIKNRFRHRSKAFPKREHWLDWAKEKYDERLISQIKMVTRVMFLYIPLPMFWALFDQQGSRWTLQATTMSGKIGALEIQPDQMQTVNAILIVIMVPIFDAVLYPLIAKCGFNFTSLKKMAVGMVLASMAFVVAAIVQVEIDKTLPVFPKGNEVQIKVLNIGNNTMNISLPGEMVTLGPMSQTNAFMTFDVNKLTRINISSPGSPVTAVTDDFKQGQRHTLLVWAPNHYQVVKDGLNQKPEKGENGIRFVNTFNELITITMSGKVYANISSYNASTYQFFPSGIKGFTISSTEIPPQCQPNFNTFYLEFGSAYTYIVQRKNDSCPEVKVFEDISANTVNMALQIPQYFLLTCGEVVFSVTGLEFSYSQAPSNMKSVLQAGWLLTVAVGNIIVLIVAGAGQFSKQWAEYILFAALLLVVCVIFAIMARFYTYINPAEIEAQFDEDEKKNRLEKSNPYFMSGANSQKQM
Assay: Inhibition constant (Ki) for human intestinal peptide carrier

SMILES | Ki [µM]
CC(N)C(=O)Nc1ccccc1-c1ccccc1 (stereo not given) | 16600
CC(N)C(=O)N1CCCCC1 (stereo not given) | 12900
CC(N)C(=O)N1CCSC1 (stereo not given) | 11000
CC(N)C(=O)Nc1ccccc1 (stereo not given) | 2900
CC1NC(=O)C(CCCN)NC1=O (stereo not given) | 2300
CC(N)C(=O)Nc1ccccc1Cl (stereo not given) | 7800
COC(=O)c1cccc(NC(=O)C(C)N)c1 (stereo not given) | 6900
Cc1cccc(NC(=O)C(C)N)c1 (stereo not given) | 410
CC1NC(=O)C(CCCCN)NC1=O (stereo not given) | 5400
COC(=O)c1ccccc1NC(=O)C(C)N (stereo not given) | 890
CC(N)C(=O)Nc1c(F)c(F)c(F)c(F)c1F (stereo not given) | 3100
CC(N)C(=O)Nc1cccc(Cl)c1 (stereo not given) | 460
CC(N)C(=O)NC1CCCCC1 (stereo not given) | 1500
COC(=O)c1ccc(NC(=O)C(C)N)cc1 (stereo not given) | 1100
NCCC(=O)NCCC(=O)O | > 30000
CC(NC(=O)CCN)C(=O)O (stereo not given) | 4800
CC(N)C(=O)NCCS(=O)(=O)O (stereo not given) | 1200
CC(N)C(=O)Nc1ccc(C(=O)O)cc1 (stereo not given) | 9100
NCCC(=O)NCC(=O)O | 7300
CC(N)C(=O)Nc1ccccc1C(=O)O (stereo not given) | 2800
CC(N)C(=O)NCCC(=O)O (stereo not given) | 2700
CC(NC(=O)[C@H](N)Cc1ccc(OCc2ccccc2)cc1)C(=O)O (stereo not given in full) | 1400
C[C@@H](NC(=O)[C@@H](N)CC(=O)O)C(=O)OCc1ccccc1 | 8300
CC(N)C(=O)NCc1ccccc1 (stereo not given) | 14100
CNCC(=O)N(C)CC(=O)O | 32000
CCC(C)C(N)C(=O)N1CCSC1 (stereo not given) | 6300

SMILES | Ki [µM]
C[C@@H](N)C(=O)N1CCC[C@@H]1C(=O)O | > 30000
CCC(C)C(N)C(=O)N1CCCCC1 (stereo not given) | 5620
CC(=O)N[C@@H](C)C(=O)N[C@@H](C)C(=O)O (Ac-Ala-Ala-OH) | > 30000
C[C@H](NC(=O)[C@H](C)NC(=O)OC(C)(C)C)C(=O)O (Boc-Ala-Ala-OH) | > 30000
C[C@H](NC(=O)[C@H](C)NC(=O)OCc1ccccc1)C(=O)O (Cbz-Ala-Ala-OH) | 5600
C[C@H](N)C(=O)NC(C)(C)C(=O)O (H-Ala-[Aib]-OH) | 1200
C[C@H](N)C(=O)N[C@@H](CCCN)C(=O)O (H-Ala-[Orn]-OH) | 980
C[C@H](N)C(=O)N[C@H](C)C(=O)O (H-Ala-[dA]-OH) | 4200
C[C@H](NC(=O)[C@@H](N)CC(=O)O)C(N)=O (H-Asp-Ala-NH2) | 5400
N[C@@H](CC(=O)O)C(=O)N[C@@H](CC(=O)O)C(=O)O (H-Asp-Asp-OH) | 410
NCC(=O)NCC(=O)O (H-Gly-Gly-OH) | 1000
NCC(=O)N[C@@H](Cc1c[nH]cn1)C(=O)O (H-Gly-His-OH) | 1000
C[C@H](NC(=O)[C@@H](N)Cc1c[nH]cn1)C(=O)O (H-His-Ala-OH) | 480
N[C@@H](Cc1ccccc1)C(=O)N1CCC[C@H]1C(=O)O (H-Phe-Pro-OH) | 130
C[C@H](NC(=O)[C@@H]1CCCN1)C(=O)O (H-Pro-Ala-OH) | 9500
O=C(O)CC[C@H](NC(=O)[C@@H]1CCCN1)C(=O)O (H-Pro-Glu-OH) | 20000
O=C(O)CNC(=O)[C@@H]1CCCN1 (H-Pro-Gly-OH) | 22000
CC(C)C[C@H](NC(=O)[C@@H]1CCCN1)C(=O)O (H-Pro-Leu-OH) | 470
O=C(O)[C@H](Cc1ccccc1)NC(=O)[C@@H]1CCCN1 (H-Pro-Phe-OH) | 1900
O=C(O)[C@H](CO)NC(=O)[C@@H]1CCCN1 (H-Pro-Ser-OH) | 14000
O=C(O)[C@H](Cc1ccc(O)cc1)NC(=O)[C@@H]1CCCN1 (H-Pro-Tyr-OH) | 730
CN[C@@H](C)C(=O)N[C@@H](C)C(=O)O (H-[NMeA]-Ala-OH) | 1800
CNCC(=O)N1CCC[C@H]1C(=O)O (H-[Sar]-Pro-OH) | 1600
C[C@H](NC(=O)[C@@H](C)N)C(=O)O (H-[dA]-Ala-OH) | 2000
C[C@@H](N)C(=O)N[C@H](C)C(=O)O (H-[dA]-[dA]-OH) | > 30000

More lines, in order of falling Ki, values ahead:

Ki [µM] | SMILES
400 | CC(C)CC(NC(=O)C(O)C(N)Cc1ccccc1)C(=O)O (stereo not given)
380 | CC(NC(=O)CN)C(=O)O (stereo not given)
350 | NCC(=O)N[C@@H](CC(=O)O)C(=O)O (H-Gly-Asp-OH)
340 | Cc1ccc(NC(=O)C(C)N)cc1 (stereo not given)
330 | CC(N)C(=O)Nc1ccc(Cl)cc1 (stereo not given)
330 | CC(N)C(=S)N1CCCC1C(=O)O (stereo not given)
330 | C[C@H](N)C(=O)N[C@@H](Cc1c[nH]cn1)C(=O)O (H-Ala-His-OH)
320 | C[C@H](N)C(=O)N[C@@H](CCC(=O)O)C(=O)O (H-Ala-Glu-OH)
320 | C[C@H](NC(=O)[C@@H](N)CC(=O)O)C(=O)O (H-Asp-Ala-OH)
310 | CC(N)C(=O)Nc1cccc(C(=O)O)c1 (stereo not given)
290 | CC(N)C(=O)Nc1cccc(-c2ccccc2)c1 (stereo not given)
260 | C[C@H](N)C(=O)N[C@@H](CC(=O)O)C(=O)O (H-Ala-Asp-OH)
250 | C[C@H](N)C(=O)N(C)CC(=O)O (H-Ala-[Sar]-OH)
250 | C[C@H](NC(=O)[C@@H](N)CCC(=O)O)C(=O)O (H-Glu-Ala-OH)
210 | CN(CC(=O)O)C(=O)[C@@H](N)Cc1ccccc1
200 | N[C@@H](CS)C(=O)NCC(=O)O
160 | C[C@H](NC(=O)[C@@H](N)Cc1cc2ccccc2[nH]1)C(=O)O
160 | CC(C)C[C@H](NC(=O)CN)C(=O)O
160 | N[C@@H](Cc1ccc(O)cc1)C(=O)N1CCC[C@H]1C(=O)O (H-Tyr-Pro-OH)
160 | CCCC[C@H](N)C(=O)N1CCC[C@H]1C(=O)O (H-[Nle]-Pro-OH)
150 | C[C@H](N)C(=O)N1CCC[C@H]1C(=O)O
150 | C[C@H](N)C(=O)N[C@@H](Cc1ccc(O)cc1)C(=O)O (H-Ala-Tyr-OH)

Ki [µM] | SMILES
140 | C[C@H](N)C(=O)NCC(=O)O (H-Ala-Gly-OH)
140 | C[C@H](N)C(=O)N[C@@H](CO)C(=O)O (H-Ala-Ser-OH)
140 | N[C@@H](CCC(=O)O)C(=O)N1CCC[C@H]1C(=O)O (H-Glu-Pro-OH)
140 | C[C@H](NC(=O)[C@@H](N)CO)C(=O)O (H-Ser-Ala-OH)
140 | CCCC[C@H](N)C(=O)N[C@@H](C)C(=O)O (H-[Nle]-Ala-OH)
130 | N[C@@H](Cc1cc2ccccc2[nH]1)C(=O)N1CCC[C@H]1C(=O)O
130 | N[C@@H](CO)C(=O)N1CCC[C@H]1C(=O)O (H-Ser-Pro-OH)
120 | C[C@H](N)C(=O)N[C@@H](Cc1ccc(Cc2ccccc2)cc1)C(=O)O
120 | CC(N)C(=O)NC(C)C(=O)O (stereo not given)
110 | CC(C)C[C@H](N)C(=O)N1CCC[C@H]1C(=O)O (H-Leu-Pro-OH)
110 | N[C@@H](Cc1ccccc1)C(=O)N[C@@H](Cc1ccccc1)C(=O)O (H-Phe-Phe-OH)
100 | CC(C)[C@H](N)C(=O)N[C@@H](Cc1ccc(O)cc1)C(=O)O (H-Val-Tyr-OH)
90 | C[C@H](NC(=O)[C@@H](N)Cc1ccc(O)cc1)C(=O)O
90 | CCCC[C@H](NC(=O)[C@H](C)N)C(=O)O (H-Ala-[Nle]-OH)
90 | N[C@@H](Cc1ccc(O)cc1)C(=O)N[C@@H](Cc1ccccc1)C(=O)O (H-Tyr-Phe-OH)
90 | CC(C)[C@H](N)C(=O)N[C@@H](C)C(=O)O (H-Val-Ala-OH)
70 | CC[C@H](NC(=O)[C@H](C)N)C(=O)O (H-Ala-[Abu]-OH)
60 | C[C@H](N)C(=O)N1CCCC[C@H]1C(=O)O (H-Ala-[Pip]-OH)
60 | CC(C)[C@H](N)C(=O)N1CCC[C@H]1C(=O)O (H-Val-Pro-OH)
20 | C[C@H](NC(=O)[C@@H](N)Cc1ccc(Cc2ccccc2)cc1)C(=O)O
20 | C[C@H](NC(=O)[C@@H](N)Cc1ccc(-c2ccccc2)cc1)C(=O)O (H-[Bip]-Ala-OH)
10 | CC(NC(=O)C(N)Cc1ccc(OCc2ccccc2)cc1)C(=O)O (stereo not given)
